row,Compound,melting point [°C]
1,"O=S(=O)(c1ccc(Cl)cc1)C(c1nccs1)c1cc(F)ccc1F (stereo not shown) [Example 30, 2-[[(4-Chlorophenyl)sulfonyl]-(2,5-difluorophenyl)methyl]thiazole]",163 to 164
2,"O=S(=O)(c1ccc(Cl)cc1)C(c1ccccn1)c1cc(F)ccc1F (stereo not shown) [Example 13, 2-[[(4-Chlorophenyl)sulfonyl]-(2,5-difluorophenyl)methyl]pyridine]",171 to 172
3,"O=C(O)c1cnc(C(c2cc(F)ccc2F)S(=O)(=O)c2ccc(Cl)cc2)c(F)c1 (stereo not shown) [Example 127, 6-(4-Chlorophenylsulfonyl)(2,5-difluorophenyl)methyl-5-fluoronicotinic acid]",249 to 251
4,"CN(C)CC(=O)NCc1ccc(C(c2cc(F)ccc2F)S(=O)(=O)c2ccc(Cl)cc2)nc1 (stereo not shown) [Example 71, N-[[6-[(4-Chlorophenylsulfonyl)(2,5-difluorophenyl)methyl]pyridin-3-yl]methyl]-2-dimethylaminoacetamide]",177 to 179
5,CN1CCN(C(=O)CCc2cnc(C(c3cc(F)ccc3F)S(=O)(=O)c3ccc(Cl)cc3)c(F)c2)CC1.Cl (stereo not shown),243 to 245
6,"Cc1cnc(C(=O)O)cc1C(c1cc(F)ccc1F)S(=O)(=O)c1ccc(Cl)cc1 (stereo not shown) [Example 209, 4-[(4-Chlorophenylsulfonyl)(2,5-difluorophenyl)methyl]-5-methylpicolinic acid]",105 to 107
7,"Nc1cccc(C(c2cc(F)ccc2F)S(=O)(=O)c2ccc(Cl)cc2)n1 (stereo not shown) [Example 149, 6-[(4-Chlorophenylsulfonyl)(2,5-difluorophenyl)methyl]pyridin-2-ylamine]",183 to 184
8,"O=S(=O)(c1ccc(Cl)cc1)C(c1cc(F)ccc1F)c1cc(NCc2ccncc2)ncc1Cl (stereo not shown) [Example 188, 5-Chloro-4-[(4-chlorophenylsulfonyl)(2,5-difluorophenyl)methyl]-2-[(pyridin-4-ylmethyl)amino]pyridine]",141 to 142
9,"Cc1cnc(CO)cc1C(c1cc(F)ccc1F)S(=O)(=O)c1ccc(Cl)cc1 (stereo not shown) [Example 207, [4-[(4-Chlorophenylsulfonyl)(2,5-difluorophenyl)methyl]-5-methylpyridin-2-yl]methanol]",196 to 198
10,"O=C(O)c1cc(C(c2cc(F)ccc2F)S(=O)(=O)c2ccc(Cl)cc2)c(Cl)cn1 (stereo not shown) [Example 262, 5-Chloro-4-[(4-chlorophenylsulfonyl)(2,5-difluorophenyl)methyl]picolinic acid]",94 to 96
11,"O=C1NCCCN1c1cc(C(c2cc(F)ccc2F)S(=O)(=O)c2ccc(Cl)cc2)c(Cl)cn1 (stereo not shown) [Example 190, 1-[5-Chloro-4-[(4-chlorophenylsulfonyl)-(2,5-difluorophenyl)methyl]pyridin-2-yl]tetrahydropyrimidin-2-one]",> 230
12,"O=C(O)CCNc1cc(C(c2cc(F)ccc2F)S(=O)(=O)c2ccc(Cl)cc2)c(Cl)cn1 (stereo not shown) (hydrate or solvate) [Example 155, 3-[[5-Chloro-4-[(4-chlorophenylsulfonyl)-(2,5-difluorophenyl)methyl]pyridin-2-yl]amino]propionic acid]",200 to 205
13,"O=S(=O)(Cc1ccc(C(c2cc(F)ccc2F)S(=O)(=O)c2ccc(Cl)cc2)nc1)c1ccc(Cl)cc1 (stereo not shown) [Example 40, 2-[(4-Chlorophenylsulfonyl)-(2,5-difluorophenyl)methyl]-5-[(4-chlorophenylsulfonyl)methyl]pyridine]",186 to 187

# From patent US7932271B2, “Heterocyclic methyl sulfone derivative” (Daiichi Pharmaceutical Co., Ltd., priority 2003, dated 2011)
